Reference: publication PMC3973694, “Identification of Odorant-Receptor Interactions by Global Mapping of the Human Odorome” (PLoS ONE, 2014)
Several values for one entry are separate records, joined by “and”; a condition that tells them apart may be missing. Identical values can stand only once. Counter-ions that a name gives are not always drawn. Like-named read-outs stand apart in the source and are kept apart here.

Columns and labels:
OR51E1 = target: T1, OR51E1 (Homo sapiens, UniProt Q8TCB6); assay: GloSensor cAMP assay, OR51E1-transfected Hana3A cells; type: cell-based
T1 construct: host or cells: Hana3A cells (HEK293T-derived), co-transfected with pCI-RTP1S and pGlo-22F
T1 sequence (Q8TCB6 1-318): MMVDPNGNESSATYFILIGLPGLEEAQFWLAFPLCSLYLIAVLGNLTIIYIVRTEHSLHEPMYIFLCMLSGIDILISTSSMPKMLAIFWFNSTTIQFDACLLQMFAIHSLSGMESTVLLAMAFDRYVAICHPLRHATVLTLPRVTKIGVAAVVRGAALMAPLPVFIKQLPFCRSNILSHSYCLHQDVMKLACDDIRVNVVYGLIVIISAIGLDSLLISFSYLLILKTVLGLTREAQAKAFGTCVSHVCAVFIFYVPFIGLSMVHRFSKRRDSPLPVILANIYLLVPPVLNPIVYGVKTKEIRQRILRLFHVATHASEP
Text: (§1) To validate predicted interactions between odorant compounds and ORs or the CB1 receptor, we used the GloSensor cAMP assay from Promega and measured the EC50 values of compounds. This luminescent assay is a sensitive method for measuring Gs and Gi- protein coupled receptor activation by real-time detection of intracellular second messenger cAMP [44]. The protocol is described in the GloSensor cAMP assays paragraph in the Supplementary Methods (S_file).
(§2) All odorants used in these assays were purchased from Sigma-Aldrich (Saint-Quentin Fallavier, France) except celery ketone, which was kindly provided by B. Schilling (Givaudan Schweiz AG, Dübendorf, Switzerland). The stock solutions of odorants (100 mM) were prepared in dimethylsulfoxide (DMSO) and were stored at -20°C. Immediately prior to the assays, the stock solutions of odorants were diluted in the CO2-independent medium (Gibco®, Life Technologies) to the appropriate concentrations. The final concentration of DMSO in wells never exceeded 1% (v/v); this concentration had no effect on GloSensor cAMP assays.
(§3) To validate predicted odorant compound-OR interactions, we used the GloSensor™ cAMP assay (Promega, Charbonnières-Les-Bains, France) to measure EC50 values of compounds. The functional assay was performed in Hana3A cells, a HEK293T-derived cell line optimized for OR expression. Hana3A cells were grown in Minimal Essential Medium (MEM; Life Technologies, Villebon-sur-Yvette, France) supplemented with 10% fetal bovine serum (PAA Laboratories, Les Mureaux, France), 100 μM Eagle’s non-essential amino acids, 2 mM glutamax (Life Technologies) and 1 μg/ml puromycin (Sigma-Aldrich, Saint-Quentin Fallavier, France). The cells were cultured at 37°C in a humidified atmosphere containing 7.3% CO2. Forty-eight hours before performing the GloSensor™ cAMP assay, cells were plated on poly-D-lysine coated 96-well plates (BD Biosciences, Le Pont de Claix, France) at a density of 3x10^4 cells per well. Twenty-four hours later, cells were transiently transfected with the OR expression plasmid (50 ng per well) together with the pCI-RTP1S plasmid and the pGlo™-22F cAMP plasmid (Promega) (10 ng and 100 ng per well, respectively) using Fugene®HD (Promega) according to the manufacturer instructions. In addition, to check that induced activities are OR-dependent, mock transfections were performed by transfecting the cells with the pCI plasmid in place of the OR expression plasmid. […] Luminescence was measured with a Victor 3V plate reader (Perkin Elmer, Courtaboeuf, France) after addition of odorant solutions (10 μl). […]

OR5P3 = target: T2, OR5P3 (Homo sapiens, UniProt Q8WZ94); assay: GloSensor cAMP assay, OR5P3-transfected Hana3A cells; type: cell-based; conditions: activation of OR5P3, Hana3A cells, mean ± s.e.m., at least three experiments
T2 construct: host or cells: Hana3A cells (HEK293T-derived), co-transfected with pCI-RTP1S and pGlo-22F
T2 sequence (Q8WZ94 1-311): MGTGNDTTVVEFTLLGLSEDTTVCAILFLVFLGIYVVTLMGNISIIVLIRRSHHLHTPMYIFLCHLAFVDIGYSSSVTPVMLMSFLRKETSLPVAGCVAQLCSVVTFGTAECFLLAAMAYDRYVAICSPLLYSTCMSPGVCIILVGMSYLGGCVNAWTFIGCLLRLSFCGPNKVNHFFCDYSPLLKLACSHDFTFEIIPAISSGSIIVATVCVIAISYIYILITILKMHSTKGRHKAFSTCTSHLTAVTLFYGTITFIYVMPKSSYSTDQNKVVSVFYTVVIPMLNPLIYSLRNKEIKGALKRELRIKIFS
Text: as §1, §2
as §3, with “well.” for “well. Twenty-four hours later, cells were transiently transfected with the OR expression plasmid (50 ng per well) together with the pCI-RTP1S plasmid and the pGlo™-22F cAMP plasmid (Promega) (10 ng and 100 ng per well, respectively) using Fugene®HD (Promega) according to the manufacturer instructions. In addition, to check that induced activities are OR-dependent, mock transfections were performed by transfecting the cells with the pCI plasmid in place of the OR expression plasmid.”

OR2W1 = target: T3, OR2W1 (Homo sapiens, UniProt Q9Y3N9); assay: GloSensor cAMP assay, OR2W1-transfected Hana3A cells; type: cell-based; conditions: activation of OR2W1, Hana3A cells, mean ± s.e.m., at least three experiments
T3 construct: host or cells: Hana3A cells (HEK293T-derived), co-transfected with pCI-RTP1S and pGlo-22F
T3 sequence (Q9Y3N9 1-320): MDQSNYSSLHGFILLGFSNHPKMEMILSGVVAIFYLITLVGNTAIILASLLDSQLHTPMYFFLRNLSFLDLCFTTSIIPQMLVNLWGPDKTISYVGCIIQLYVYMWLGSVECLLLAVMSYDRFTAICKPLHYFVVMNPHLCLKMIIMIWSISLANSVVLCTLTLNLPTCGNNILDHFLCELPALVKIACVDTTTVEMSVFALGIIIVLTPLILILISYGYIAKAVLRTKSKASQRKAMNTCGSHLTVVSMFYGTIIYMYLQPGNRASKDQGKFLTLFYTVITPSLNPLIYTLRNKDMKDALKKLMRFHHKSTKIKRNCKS
Text: as §1, §2
as §3, with “well.” for “well. Twenty-four hours later, cells were transiently transfected with the OR expression plasmid (50 ng per well) together with the pCI-RTP1S plasmid and the pGlo™-22F cAMP plasmid (Promega) (10 ng and 100 ng per well, respectively) using Fugene®HD (Promega) according to the manufacturer instructions. In addition, to check that induced activities are OR-dependent, mock transfections were performed by transfecting the cells with the pCI plasmid in place of the OR expression plasmid.”

[1] = target: human cannabinoid receptor CB1 (Homo sapiens, UniProt P21554); assay: GloSensor cAMP assay, CB1-transfected HEK293 cells; type: cell-based; conditions: for EC50: increase in cAMP production, forskolin-stimulated control cells, mean ± s.e.m., three experiments
Hana3A cells = assay: Cytotoxic effects seen in the OR GloSensor assay; type: cell-based; conditions: no saturation of the response could be observed
Experimental: as §3, with “instructions.” for “instructions. In addition, to check that induced activities are OR-dependent, mock transfections were performed by transfecting the cells with the pCI plasmid in place of the OR expression plasmid.”

[2] = target: T4, human PPARγ ligand binding domain (Homo sapiens, UniProt P37231); assay: Competitive PPARγ binding assay (LanthaScreen TR-FRET); conditions: IC50 (inhibition of binding), displacement of fluorescent pan PPAR agonist tracer
T4 sequence (P37231 238-503 limits assumed): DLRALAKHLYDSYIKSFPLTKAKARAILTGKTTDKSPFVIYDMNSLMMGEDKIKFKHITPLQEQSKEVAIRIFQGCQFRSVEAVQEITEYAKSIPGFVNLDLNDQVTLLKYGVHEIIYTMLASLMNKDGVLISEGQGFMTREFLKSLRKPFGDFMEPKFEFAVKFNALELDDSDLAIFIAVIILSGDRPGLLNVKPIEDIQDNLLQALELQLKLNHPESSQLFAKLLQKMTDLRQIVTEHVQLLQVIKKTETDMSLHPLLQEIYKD
Experimental: To validate predictions of odorant-PPARγ interactions, IC50 values for respective compounds were determined by competitive binding using time-resolved fluorescence resonance energy transfer (LanthaScreen, Invitrogen) on a Wallac EnVision (PerkinElmer).
To validate predictions of odorant-PPARγ interactions, IC50 values for respective compounds were determined by competitive binding using time-resolved fluorescence resonance energy transfer (LanthaScreen, Invitrogen) on a Wallac EnVision (PerkinElmer). A terbium labeled anti-GST antibody was used to label purified GST-tagged human PPARγ ligand binding domain. Energy transfer from terbium to the tracer, a fluorescent pan PPAR agonist, enabled read-out of each test compound’s ability to displace the tracer. […] An unrestrained sigmoidal (one-binding site) dose-response curve was fitted to each data set by linear regression allowing for determination of IC50 values.

[3] = activation of OR51E1, Hana3A cells, mean ± s.e.m., at least three experiments, read-out: EC50
[4] = absence or presence of pertussis toxin

Chain of human cannabinoid receptor CB1 (P21554 whole entry): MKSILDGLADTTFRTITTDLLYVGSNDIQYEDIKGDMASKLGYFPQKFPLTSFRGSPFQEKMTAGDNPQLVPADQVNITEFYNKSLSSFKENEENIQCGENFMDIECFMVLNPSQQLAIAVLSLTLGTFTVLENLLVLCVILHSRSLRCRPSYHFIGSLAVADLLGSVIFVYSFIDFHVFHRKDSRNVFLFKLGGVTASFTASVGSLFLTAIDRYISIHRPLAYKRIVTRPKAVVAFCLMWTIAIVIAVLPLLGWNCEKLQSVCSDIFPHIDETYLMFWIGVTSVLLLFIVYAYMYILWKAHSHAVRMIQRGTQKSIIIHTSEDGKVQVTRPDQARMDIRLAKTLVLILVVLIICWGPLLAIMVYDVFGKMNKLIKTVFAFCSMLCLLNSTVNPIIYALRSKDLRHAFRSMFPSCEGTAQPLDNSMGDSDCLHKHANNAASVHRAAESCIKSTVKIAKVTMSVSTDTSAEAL

For `CCC(=O)O` [Propionic acid], the fold lower activity (OR51E1; OR51E1, compared with isovaleric acid and nonanoic acid) was 5 fold and the EC50 (OR51E1; [3]) was 923 µM.
`C=C(C)C1CC=C(C)C(=O)C1` (single isomer, unassigned; (-)) [(-)-carvone, reference compound] was tested, and the EC50 (OR5P3) was 388 µM.
Compound `CC(C)CC(=O)O` [Isovaleric acid] has an EC50 (OR51E1; [3]) of 153 µM.
Compound `CC(C)=CCCC(C)CC=O` (stereo not drawn) [Citronellal] has an EC50 (OR2W1) of 208 µM.
`CCCCCCCC(C)=O` [2-Nonanone] was tested, and the “mode of action at CB1” value [1, 4] was “inverse agonists” and the EC50 [1] was 363 ± 80.7 µM.
For `CCCCCC(=O)OCCc1ccccc1` [2-Phenylethyl hexanoate], the “mode of action at CB1” value [1, 4] was “inverse agonists” and the EC50 [1] was 509 ± 8.3 µM.
With `CCCC1CC(=O)C=C(C)C1` (stereo not drawn) [celery ketone] the EC50 (OR5P3) was 483 µM and the “concentrations with cytotoxic effects” value (Hana3A cells) was “higher than 10^−3 M”.
In the case of `CCCCOC(=O)CC(CC(=O)OCCCC)(OC(C)=O)C(=O)OCCCC` [Tributyl acetyl citrate], the “mode of action at CB1” value [1, 4] is reported as “inverse agonists” and the EC50 [1] is reported as 122 ± 25.2 µM.
In the case of `O=C1C[C@@H](c2ccc(O)cc2)Oc2cc(O)cc(O)c21` [naringenin], the IC50 [2] is reported as 7.4 µM.
`CCCCCCC(C)(C)c1cc(O)c2c(c1)OC(C)(C)[C@@H]1CC=C(CO)C[C@@H]21` [HU210, (6aR)-trans-3-(1,1-dimethylheptyl)-6a,7,10,10a,-tetrahydro-1-hydroxy-6,6-dimethyl-6H-dibenzo[b,d]pyran-9-methanol, reference compound] was tested, and the “mode of action at CB1” value [1] was “agonists”.
With `CC(=O)OCc1ccccc1` [Benzyl acetate, reference compound] the EC50 (OR2W1) was 34.3 ± 1.17 µM.
In the case of `O=C(OCCc1ccccc1)c1ccccc1O` [phenylethyl salicylate], the IC50 [2] is reported as 9.2 µM and 14.7 µM.
For `CCCCCCCCO` [1-octanol], the EC50 (OR5P3) was 115 µM and the “concentrations with cytotoxic effects” value (Hana3A cells) was “higher than 10^−3 M”.
Compound `CC(C)=CCC/C(C)=C/C=O` [Citral] has an EC50 (OR2W1) of 129 µM.
`CCCCCCCCC(=O)O` [Nonanoic acid, reference compound] was tested, and the EC50 (OR51E1) was 197 µM.
